Data on 31 compounds can be found in ChEMBL document CHEMBL1141614, “Selective COX-2 inhibitors. Part 2: synthesis and biological evaluation of 4-benzylideneamino- and 4-phenyliminomethyl-benzenesulfonamides” (Bioorg Med Chem, 2008).

Broadly, the IC50 is the concentration that inhibits the measured activity by half.

The target in test [1] is Prostaglandin G/H synthase 1 (Homo sapiens, UniProt P23219). The class given is tissue-based, Blood.
Description: Inhibition of COX1 in human whole blood assessed as effect on A-23187-stimulated TxB2 production
The target in test [2] is T1, Prostaglandin G/H synthase 2 (Homo sapiens, UniProt P35354).
T1 sequence (P35354 whole entry): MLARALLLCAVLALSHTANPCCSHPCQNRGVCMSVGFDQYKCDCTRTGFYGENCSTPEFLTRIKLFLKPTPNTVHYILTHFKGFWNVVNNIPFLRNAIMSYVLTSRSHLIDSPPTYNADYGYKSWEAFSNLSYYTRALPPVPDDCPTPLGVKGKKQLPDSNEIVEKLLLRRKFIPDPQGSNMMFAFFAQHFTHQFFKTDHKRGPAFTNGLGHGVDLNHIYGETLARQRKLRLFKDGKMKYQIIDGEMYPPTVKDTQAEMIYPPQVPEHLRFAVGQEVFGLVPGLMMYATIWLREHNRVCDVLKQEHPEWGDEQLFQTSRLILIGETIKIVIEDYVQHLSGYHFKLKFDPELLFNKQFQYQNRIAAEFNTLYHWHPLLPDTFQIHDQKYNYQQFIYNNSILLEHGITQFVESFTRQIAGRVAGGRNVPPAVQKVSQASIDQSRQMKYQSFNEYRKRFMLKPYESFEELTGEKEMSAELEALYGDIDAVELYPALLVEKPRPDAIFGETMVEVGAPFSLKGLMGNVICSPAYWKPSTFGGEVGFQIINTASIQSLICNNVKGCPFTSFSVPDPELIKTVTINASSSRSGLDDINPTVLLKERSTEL
Nature of the test: Inhibition of COX2 in human whole blood assessed as effect on LPS-stimulated PGE2 production.

Sequence of Prostaglandin G/H synthase 1 (P23219 whole entry): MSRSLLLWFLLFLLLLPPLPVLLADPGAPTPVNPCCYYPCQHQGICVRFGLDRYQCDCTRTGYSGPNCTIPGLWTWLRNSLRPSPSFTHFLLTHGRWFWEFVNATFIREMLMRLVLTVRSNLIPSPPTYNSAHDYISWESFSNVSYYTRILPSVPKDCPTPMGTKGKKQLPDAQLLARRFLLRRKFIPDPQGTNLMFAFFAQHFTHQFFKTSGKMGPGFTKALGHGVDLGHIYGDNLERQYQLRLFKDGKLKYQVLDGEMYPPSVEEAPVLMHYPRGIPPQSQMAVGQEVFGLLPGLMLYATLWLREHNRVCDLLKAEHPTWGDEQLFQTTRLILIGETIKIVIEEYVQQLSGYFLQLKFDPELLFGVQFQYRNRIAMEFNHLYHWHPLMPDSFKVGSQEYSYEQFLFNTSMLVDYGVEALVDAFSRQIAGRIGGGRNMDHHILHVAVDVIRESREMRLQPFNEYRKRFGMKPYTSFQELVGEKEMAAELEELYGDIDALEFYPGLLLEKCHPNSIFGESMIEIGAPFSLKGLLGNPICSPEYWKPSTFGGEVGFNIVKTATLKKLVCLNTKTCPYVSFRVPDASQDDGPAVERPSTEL

As to `COC(=O)c1ccc(/N=C/c2ccc(S(N)(=O)=O)cc2)cc1`, the figures for the IC50 in test [1] and in test [2] were 56.7 µM and 3.72 µM, respectively.
In the same order, the values of `NS(=O)(=O)c1ccc(/N=C/c2ccc([N+](=O)[O-])cc2)cc1` are 141 µM and 3 µM.
Taken in the same sequence, the figures for `COc1ccc(/N=C/c2ccc(S(N)(=O)=O)cc2)cc1` were 60.7 µM and 4.14 µM.
In the same order, the values of `COc1ccc(/C=N/c2ccc(S(N)(=O)=O)cc2)cc1O` are 43.8 µM and 3.5 µM.
Consider `COc1cc(/C=N/c2ccc(S(N)(=O)=O)cc2)cc(OC)c1O`, for which the IC50 in test [1] is 156 µM; in test [2], 2.71 µM.
As for `NS(=O)(=O)c1ccc(/N=C/c2cccc(O)c2)cc1`, the results for the IC50 in test [1] and in test [2] were 38.2 µM and 2.78 µM, respectively.
With `NS(=O)(=O)c1ccc(/N=C/c2ccc(C(F)(F)F)cc2)cc1`, the values for the IC50 in test [1] and in test [2] were 182 µM and 4.6 µM, respectively.
For the compound `CCOc1cc(/C=N/c2ccc(S(N)(=O)=O)cc2)ccc1O`, the IC50 in test [1] amounted to 47.9 µM; in test [2], 3.69 µM.
In the same order, the values of `NS(=O)(=O)c1ccc(/N=C/c2ccc(O)c(O)c2)cc1` are 23.2 µM and 2.85 µM.
In the same order, the values of `COc1cc(/C=N/c2ccc(S(N)(=O)=O)cc2)ccc1O` are 78.2 µM and 2.95 µM.
In the case of `NS(=O)(=O)c1ccc(/N=C/c2ccc(O)cc2)cc1`, the IC50 in test [1] was found to be 148 µM; in test [2], 3.42 µM.
In the same order, the values of `CN(C)c1ccc(/C=N/c2ccc(S(N)(=O)=O)cc2)cc1` are 196 µM and 3.36 µM.
In the same order, the values of `COc1ccc(/N=C/c2ccc(S(N)(=O)=O)cc2)cc1OC` are 31.3 µM and 4.28 µM.
Taken in the same sequence, the figures for `COc1cc(/C=N/c2ccc(S(N)(=O)=O)cc2)cc(OC)c1` were 110 µM and 3.4 µM.
Consider `NS(=O)(=O)c1ccc(/C=N/c2ccc(C(F)(F)F)cc2)cc1`, for which the results for the IC50 in test [1] and in test [2] were 43.9 µM and 6.54 µM, respectively.
In the same order, the values of `COc1ccc(/C=N/c2ccc(S(N)(=O)=O)cc2)cc1OC` are 110 µM and 3.09 µM.
Taken in the same sequence, the figures for `COc1ccc(/C=N/c2ccc(S(N)(=O)=O)cc2)cc1` were 314 µM and 9.88 µM.
In the same order, the values of `COc1cccc(/C=N/c2ccc(S(N)(=O)=O)cc2)c1` are 383 µM and 5.45 µM.
With `Cc1ccc(/N=C/c2ccc(S(N)(=O)=O)cc2)cc1`, the IC50 is 63.2 µM in test [1] and 4.62 µM in test [2].
In the same order, the values of `NS(=O)(=O)c1ccc(/C=N/c2ccc(F)cc2)cc1` are 80.2 µM and 4.38 µM.
Taken in the same sequence, the figures for `NS(=O)(=O)c1ccc(/C=N/c2ccc(O)cc2)cc1` were 51.8 µM and 5.09 µM.
Taken in the same sequence, the figures for `COc1cc(/C=N/c2ccc(S(N)(=O)=O)cc2)cc(OC)c1OC` were 167 µM and 2.93 µM.
As for `NS(=O)(=O)c1ccc(/N=C/c2cccc([N+](=O)[O-])c2)cc1`, the IC50 stood at 106 µM in test [1] and 6.75 µM in test [2].
Taken in the same sequence, the figures for `NS(=O)(=O)c1ccc(/N=C/c2ccc(O)c(C(=O)O)c2)cc1` were 85.1 µM and 0.74 µM.
In the same order, the values of `COC(=O)c1ccc(/C=N/c2ccc(S(N)(=O)=O)cc2)cc1` are 184 µM and 2.73 µM.
Taken in the same sequence, the figures for `NS(=O)(=O)c1ccc(/C=N/c2ccccc2)cc1` were 63.6 µM and 3.11 µM.
As to `NS(=O)(=O)c1ccc(/N=C/c2ccccc2)cc1`, the IC50 in test [1] worked out at 108 µM; in test [2] it was 2.87 µM.
Taken in the same sequence, the figures for `CN(C)c1ccc(/N=C/c2ccc(S(N)(=O)=O)cc2)cc1` were 64.4 µM and 1.95 µM.
Taken in the same sequence, the figures for `NS(=O)(=O)c1ccc(/N=C/c2ccc(F)cc2)cc1` were 159 µM and 2.22 µM.
In the same order, the values of `Cc1ccc(/C=N/c2ccc(S(N)(=O)=O)cc2)cc1` are 190 µM and 4.94 µM.
On to `COC(=O)c1cc(/N=C/c2ccc(S(N)(=O)=O)cc2)ccc1O`, for which the IC50 in test [1] came out at 24 µM; in test [2], 3.13 µM.
